Reference: PubChem BioAssay (NCI)
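GI50: concentration for 50% inhibition of growth. At the TGI there is no net growth.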

Experiments:
Assay in all cases: inhibition of tumour cell growth, NCI panel, 384-well format
[1] = system: MDA-MB-468 breast
[2] = system: LOX IMVI melanoma
[3] = system: UACC-257 melanoma
[4] = system: A498 renal
[5] = system: OVCAR-4 ovarian
[6] = system: EKVX NSCLC
[7] = system: IGROV1 ovarian
[8] = system: SF-268 CNS
[9] = system: SK-OV-3 ovarian
[10] = system: OVCAR-5 ovarian
[11] = system: A549 NSCLC
[12] = system: ACHN renal
[13] = system: HCC-2998 colon
[14] = system: T-47D breast
[15] = system: M14 melanoma
[16] = system: SW-620 colon
[17] = system: NCI-H322M lung
[18] = system: DU-145 prostate
[19] = system: NCI/ADR-RES ovarian
[20] = system: SNB-75 CNS
[21] = system: SNB-19 CNS
[22] = system: MOLT-4 leukemia
[23] = system: 786-0 renal
[24] = system: TK-10 renal
[25] = system: NCI-H23 lung
[26] = system: HCT-15 colon
[27] = system: HOP-62 NSCLC
[28] = system: MDA-MB-231 breast
[29] = system: SN12C renal
[30] = system: SF-539 CNS
[31] = system: MCF7 breast
[32] = system: HL-60(TB) leukemia
[33] = system: BT-549 breast
[34] = system: SK-MEL-5 melanoma
[35] = system: MALME-3M melanoma
[36] = system: CAKI-1 renal
[37] = system: RXF 393 renal
[38] = system: PC-3 prostate
[39] = system: UO-31 renal
[40] = system: KM12 colon
[41] = system: SK-MEL-28 melanoma
[42] = system: HOP-92 NSCLC
[43] = system: U251 glioblastoma
[44] = system: UACC-62 melanoma
[45] = system: OVCAR-8 ovarian
[46] = system: NCI-H226 lung
[47] = system: NCI-H460 NSCLC
[48] = system: OVCAR-3 ovarian
[49] = system: CCRF-CEM leukemia
[50] = system: NCI-H522 lung
[51] = system: RPMI-8226 leukemia
[52] = system: HCT-116 colon
[53] = system: HT29 colon
[54] = system: MDA-MB-435 melanoma
[55] = system: SF-295 CNS
[56] = system: COLO 205 colon
[57] = system: HS 578T breast
[58] = system: K-562 leukemia

## Cc1ccc(NC(=O)c2ccnc(C(F)(F)F)c2)cc1-c1cc(OCCO)nc(N2CCOCC2)c1
[1]
  GI50: 0.359 µM
  TGI: 1.27 µM
[2]
  GI50: 0.171 µM
  TGI: 1.17 µM
[3]
  GI50: 0.272 µM
  TGI: 1.31 µM
[4]
  GI50: 1.2 µM
  TGI: 7.92 µM
[5]
  GI50: 3.87 µM
  TGI: 20 µM
[6]
  GI50: 2.85 µM
  TGI: 14.8 µM
[7]
  GI50: 0.697 µM
  TGI: 11.4 µM
[8]
  GI50: 0.211 µM
  TGI: 0.532 µM
[9]
  GI50: 1.78 µM
  TGI: 17.8 µM
[10]
  GI50: 0.675 µM
  TGI: 8.88 µM
[11]
  GI50: 0.591 µM
  TGI: 14.5 µM
[12]
  GI50: 0.787 µM
  TGI: 12.3 µM
[13]
  GI50: 0.224 µM
  TGI: 1.27 µM
[14]
  GI50: 0.754 µM
  TGI: 5.92 µM
[15]
  GI50: 0.129 µM
  TGI: 0.603 µM
[16]
  GI50: 0.282 µM
  TGI: 10.5 µM
[17]
  GI50: 2.01 µM
  TGI: 16.2 µM
[18]
  GI50: 2.42 µM
  TGI: > 100 µM
[19]
  GI50: 2.19 µM
  TGI: 5.24 µM
[20]
  GI50: 1.34 µM
  TGI: 9.72 µM
[21]
  GI50: 2.38 µM
  TGI: 18 µM
[22]
  GI50: 0.172 µM
  TGI: 0.317 µM
[23]
  GI50: 0.997 µM
  TGI: 11.7 µM
[24]
  GI50: 1.03 µM
  TGI: 87.6 µM
[25]
  GI50: 0.0792 µM
  TGI: 1.1 µM
[26]
  GI50: 0.339 µM
  TGI: 9.05 µM
[27]
  GI50: 1.23 µM
  TGI: 11.5 µM
[28]
  GI50: 0.0373 µM
  TGI: 12.1 µM
[29]
  GI50: 1.18 µM
  TGI: 10.4 µM
[30]
  GI50: 0.927 µM
  TGI: 3.75 µM
[31]
  GI50: 0.951 µM
  TGI: 10.9 µM
[32]
  GI50: 0.068 µM
  TGI: 1.09 µM
[33]
  GI50: 1.21 µM
  TGI: 6.68 µM
[34]
  GI50: 0.155 µM
  TGI: 0.437 µM
[35]
  GI50: 0.0856 µM
  TGI: 0.316 µM
[36]
  GI50: 0.847 µM
  TGI: 18.1 µM
[37]
  GI50: 0.342 µM
  TGI: 1.96 µM
[38]
  GI50: 0.75 µM
  TGI: 14.2 µM
[39]
  GI50: 1.12 µM
  TGI: 3.41 µM
[40]
  GI50: 0.523 µM
  TGI: 5.77 µM
[41]
  GI50: 0.253 µM
  TGI: 0.758 µM
[42]
  GI50: 0.928 µM
  TGI: 3.49 µM
[43]
  GI50: 0.595 µM
  TGI: 5.43 µM
[44]
  GI50: 0.152 µM
  TGI: 0.526 µM
[45]
  GI50: 0.777 µM
  TGI: 4.6 µM
[46]
  GI50: 0.577 µM
  TGI: 6.56 µM
[47]
  GI50: 0.379 µM
  TGI: 10.6 µM
[48]
  GI50: 0.461 µM
  TGI: 1.79 µM
[49]
  GI50: 0.385 µM
  TGI: 1.46 µM
[50]
  GI50: 0.274 µM
  TGI: 0.755 µM
[51]
  GI50: 0.344 µM
  TGI: 0.974 µM
[52]
  GI50: 0.243 µM
  TGI: 2.48 µM
[53]
  GI50: 0.306 µM
  TGI: 1.99 µM
[54]
  GI50: 0.289 µM
  TGI: 0.922 µM
[55]
  GI50: 0.569 µM
  TGI: 13.9 µM
[56]
  GI50: 0.214 µM
  TGI: 1.12 µM
[57]
  GI50: 1.19 µM
  TGI: 3.65 µM
[58]
  GI50: 0.428 µM
  TGI: 1.72 µM
